Values of other authors, collected in patent publication US12377109B2, “Formulation and noncovalent stabilization of olivetolic acid derivatives” (MINGOWOOD PHARMACAL LLC, priority 2020, dated 2025).
Read-outs that look alike come from different tables or passages of the source.

How the values were obtained:
[1] = test system: MDA-MB-231 human breast cancer cells; conditions: MDA-MB-231 cells
[2] = for first-order rate constant k for decarboxylation: 100° C.
[3] = test system: lithium chloride- and cisplatin-induced vomiting; conditions: mice and shrews
[4] = 30° C., neat substances and solutions, reviewed studies
[5] = 40° C., neat substances and solutions, reviewed studies

In the case of `C=C(C)C1CCC(C)=CC1c1c(O)cc(CCCCC)c(C(=O)O)c1O` (stereo not drawn) [CBDA, 3-p-mentha-1,8-dien-3-yl-6-pentyl-beta-resorcylic acid], the “effect on cell migration” value [1] is given as “inhibits migration”, the “time to 10% degradation” value ([2]; 25° C., extrapolated from Wang's data) is given as “approximately 3.7 weeks” and the half-life ([2]; 30° C., calculated from Citti et al.) is given as 4.5 weeks. For the same compound, the half-life ([2]; 30° C., calculated from Wang et al.) was 11.6 weeks, the half-life ([2]; 30° C., estimated for the Cerilliant product) was “about 12 weeks” and the half-life [2, 4] was “about 12 weeks”. The decrease in potency ([2]; 40° C. over 4 weeks, Cerilliant standard solution in acetonitrile) was 69.8%, the half-life ([2]; 40° C., from Wang et al. parameters) was 4.06 weeks and the half-life [2, 5] was “about 4 weeks”. The decay constant ([2]; 80° C., Wang et al.) was 5.35e-05 s⁻¹, the half-life ([2]; 80° C., Wang's estimate) was 3.6 h and the half-life ([2]; 80° C., in hemp oil as extracted, Citti et al.) was “approximately 4.9 hours”. The “first-order rate constant k for decarboxylation” value [2] was 4.13×10^−4, the “activation energy of degradation” value ([2]; Wang et al.) was 27.5 kcal/mol and the “prefactor in the expression for the degradation rate constant” value ([2]; Wang et al.) was 2e+12 s⁻¹. The “activation energy of degradation” value ([2]; in hemp oil, Citti et al.) was 21.4 kcal/mol, the prefactor ([2]; in hemp oil, Citti et al.) was 6.9e+08 L/s and the “lowest dose suppressing vomiting” value [3] was 0.01 mg/kg. The pKa was 3.4.

For `CCCCCc1cc(O)c(C/C=C(\C)CCC=C(C)C)c(O)c1C(=O)O` [CBGA, 3-[(2E)-3,7-dimethylocta-2,6-dienyl]-2,4-dihydroxy-6-pentylbenzoic acid], the pKa is given as 2.9.

In the case of `CCCCCc1cc2c(c(O)c1C(=O)O)[C@@H]1C=C(C)CC[C@H]1C(C)(C)O2` [THCA, (6aR,10aR)-1-hydroxy-6,6,9-trimethyl-3-pentyl-6a,7,8,10a-tetrahydrobenzo[c]chromene-2-carboxylic acid], the half-life [2, 4] is given as “about 12 weeks”, the loss ([2]; 40% and 90% ethanol tinctures, 4° C., dark, 6 months, Peschel) is given as “over 50%” and the half-life [2, 5] is given as “about 4 weeks”. For the same compound, the “first-order rate constant k for decarboxylation” value [2] was 4.93×10^−4.
